Test results from patent US20090305955A1, “Cyclopeptide with Anti-Cancer Activity Derived from Collagen Type IV” (priority 2006, published 2009).
Where a SMILES comes first, the peptide text is derived from it.

How the values were obtained:
[1] = tested on: B16F1 murine melanoma cells; assay: Measurement of in vivo tumour growth, pre-incubated B16F1 cells injected s.c.; set-up: species or system C57BL6 mice; conditions: day 20; for in vivo tumour growth: B16F1 cells pre-incubated 15 minutes with 20 μM peptide, s.c. in C57BL6 mice
Protocol: FIG. 16: In vivo tumour growth in the presence of YSNSG (SEQ ID NO: 3) cyclopeptide. B16F1 cells were incubated for 15 minutes with a control medium (negative control, white diamonds), with the linear heptapeptide CNYYSNS (SEQ ID NO: 5) (20 μM) (positive control, black diamonds) or with the cyclopeptide YSNSG (SEQ ID NO: 3) at a concentration of 20 μM (grey diamonds), then injected subcutaneously into syngenic C57BL6 mice (2.5×10^5 cells per mouse). The tumour volume was measured on the 20th day;
Female C57BL6 mice (mean body weight 18 to 20 g) were purchased from Harlan France (Gannat, France). The animals were placed in individual cages at a constant temperature and humidity; food and water were supplied ad libitum. All of the mice underwent a 1 week acclimatization period before commencing the experiments. The in vivo experiments were carried out in accordance with the recommendations of the Centre National de la recherché Scientifique (CNRS, National Centre for Scientific Research).
A suspension of B16F1 cells (2.5×10^5 cells in RPMI 1640 medium) which may or may not have been pre-treated with the cyclopeptide YSNSG (SEQ ID NO: 3) (20 μM) was injected subcutaneously into the left flank of syngenic mice from a different series. The mice were sacrificed on day 20 and the tumour size was measured. The volume of the tumours was determined by the relationship V=½A×B^2 in which A and B respectively represent the largest and the smallest dimension of the tumour (Wald et al).

UACC-903 melanoma cells = assay: In vitro invasion/migration test (modified Boyden chambers, Matrigel); type: cell-based, human; conditions: 20 μM; 48 hours; Matrigel membranes, 10% FCS chemoattractive agent
Protocol: FIG. 10: In vitro migration test for UACC-903 human melanoma cells in the presence of the cyclopeptide YSNSG (SEQ ID NO: 3). The UACC-903 cells were incubated with a control medium (control, negative, white bar), a linear heptapeptide CNYYSNS (SEQ ID NO: 5) (positive control, black bar) or with the cyclopeptide YSNSG (SEQ ID NO: 3) at 20 μM (grey bar). After an incubation period of 48 hours, the migrated cells were stained with crystal violet and counted under reverse microscopy.
Cell invasion was tested in modified Boyden chambers (ThinCert®, a cell culture insert for 24-well plates, internal diameter 8.36 mm, 8 μm pore, Greiner Bio-one, Courtaboeuf, France). Briefly, 5×10^4 cells were suspended in DMEM medium without FCS and containing 0.2% BSA and seeded onto membranes spread with Matrigel (30 μg/cm^2). DMEM medium supplemented with 10% FCS and 2% BSA were used as the chemo-attracting agent. […] The cells remaining on the upper surface of the membranes were eliminated by scraping and those on the lower surface were counted using a reverse microscope (Pasco et al, 2000(a)). The counted cells corresponded to the cells which had crossed the Matrigel mat then the porous membrane of the Boyden chamber; they thus reflected the migration and invasion capacities of the tumour cells through an extracellular matrix or a basal membrane, reproduced in this case by the Matrigel.

[2] = tested on: UACC-903 human melanoma cells; assay: In vitro proliferation test (Wst-1 reagent); type: cell-based; conditions: 48 hours
Protocol: FIG. 9: In vitro proliferation test for human melanoma cells UACC-903 in the presence of the cyclopeptide YSNSG (SEQ ID NO: 3). The UACC-903 cells were incubated for 48 hours in 24-well plates, with a control medium (negative control, white bar), a linear heptapeptide CNYYSNS (SEQ ID NO: 5) (positive control, black bar) or concentrations of cyclopeptide YSNSG (SEQ ID NO: 3) varying from 5 μM to 20 μm (grey bars).
B16F1 cells, a metastasic sub-line of B16 murine melanoma pulmonary cells (d-Dr M Grégoire, INSERM U419, Nantes, France) were cultivated in RPMI 1640 medium, supplemented with 5% foetal calf serum (FCS) in 25 cm^2 flasks (Nunclon, VWR Int, Strasbourg, France) in a humid atmosphere containing 5% CO2. UACC-903 cells, a melanoma cell line (Dr J Trent, Phoenix, Ariz.) were cultivated in DMEM medium containing 4.5 g/l glucose, supplemented with 5% FCS in 25 cm^2 flasks (Nunclon) in a moist atmosphere containing 5% CO2. HMEC-1 cells (human microvascular entothelial cells; E W Ades, Center for Disease Control and Prevention, Atlanta, Ga.) and HUVEC cells (human umbilical vein endothelial cells) were cultivated in endothelial cell growth medium (ECGM) supplemented with ECGS/H at 0.4% (by weight), 2% (by volume) foetal calf serum, epidermal growth factor (EGF) 10 ng/ml, 1 μg/ml of hydrocortisone, 50 ng/ml of amphotericin B and 50 μg/ml of gentamicin.
Cell proliferation was determined using the reagent Wst-1 following the manufacturer's instructions. This reagent contains a tetrazolium salt which is reduced by mitochondrial oxido-reductases and allows the proliferation and viability of cells to be evaluated. Its reduction gives rise to a soluble formazan derivative which is yellow in colour. Before reaching confluence, the cells were washed twice with a saline solution buffered with phosphate (phosphate buffered saline; PBS) to remove SVF residues and incubated for 48 hours in DMEM medium, in the presence or absence of synthetic peptides at concentrations of 0 to 20 μM. The medium was recovered then centrifuged at 500 g for 10 min at 4° C. to remove cell debris. The protein contents of the medium obtained was determined using Bradford's method using SAB as the reference.

MMP-14 = assay: Western blot of proMMP-14 / MMP-14, UACC-903 cells; type: cell-based, human; conditions: 20 μM
Protocol: FIG. 12: Effect of YSNSG (SEQ ID NO: 3) cyclopeptide on expression and activation of MMP-14. Expression of proMMP-14 (white bar) and MMP-14 (black bar) was studied by Western Blot (A) in a medium conditioned by UACC-903 cells in the absence of peptide (control), on cells treated with the linear heptapeptide CNYYSNS (SEQ ID NO: 5) (20 μm) or treated with the cyclopeptide YSNSG (SEQ ID NO: 3) at a concentration of 20 μM (cyclopeptide YSNSG (SEQ ID NO: 3)). The conditioned medium was recovered and analyzed as described in the methods. Quantification was carried out using Bio 1D software. (B);
The samples underwent 10% polyacrylamide gel electrophoresis in the presence of 0.1% SDS then were transferred onto Immobilon-P membranes (Millipore, St Quentin en Yvelines, France). The membranes were saturated with 5% freeze dried skimmed milk, Tween 20 0.1% in a 50 mM Tris-HCl, 150 mM NaCl buffer, pH 7.5 (TBS) for 2 hours at ambient temperature. The membranes were then incubated overnight at 4° C. with anti-MMP-14, anti-PAI-1 and anti-u-PAR antibodies then incubated for one hour at ambient temperature with a secondary antibody (anti-IgG) conjugated with peroxidase. The immune complexes were visualized with an ECL chemoluminescence detection kit.

| Compound | in vivo tumour growth [1] | reduction in the migration of UACC-903 cells (UACC-903 melanoma cells) | In vitro proliferation of UACC-903 human melanoma cells, change vs control ([2]; linear heptapeptide positive control, concentration not given) | activation of proMMP-14 (MMP-14) | expression of proMMP-14 (MMP-14) | reduction in tumour volume ([1]; B16F1 cells pre-treated with 20 μM, no re-injection of peptide, C57BL6 mice) | inhibited the proliferation of UACC-903 melanoma cells ([2]; 5 μM) | inhibited the proliferation of UACC-903 melanoma cells ([2]; 10 μM) | inhibited the proliferation of UACC-903 melanoma cells ([2]; 20 μM) |
| --- | --- | --- | --- | --- | --- | --- | --- | --- | --- |
| CNYYSNS (Synthetic linear heptapeptide) [linear peptide NC1 [α3(IV) 185-191], the 7 N-terminal amino acids of the 185-203 domain; positive control, reference compound] | inhibited tumour growth | similar | −45% | same intensity | same intensity |  |  |  |  |
| NC(=O)CC1NC(=O)C(CO)NC(=O)C(Cc2ccc(O)cc2)NC(=O)CNC(=O)C(CO)NC1=O (stereo not shown) [cyclopeptide YSNSG, cyclopeptide YSNSG (SEQ ID NO: 3)] (cyclo(GYSNS); configuration not given here) | inhibited tumour growth | −47% |  | completely abolished | strongly inhibited | 46% | 27% | 29% | 40% |
